Test results from paper PMC7659582 (Cell Reports Medicine, 2020).

Tests used:
[1] = cited from earlier work; for CredibleMeds: Table 2; for CredibleMeds Classification: Table 1, as of last access May 22, 2018
[2] = FAERS disproportionality analysis; conditions: for EB05: Table 2, values correspond to EB05 TdP of Table 1; for EB05 TdP / EB05 VA / EB05 VT: FAERS Nov 1997 to March 31, 2015, EB05 > 2 = signal; for EB05 TdP: torsades de pointes; for EB05 VA: ventricular arrhythmia; for EB05 VT: ventricular tachycardia
[3] = Incidence of cardiac dysrhythmia in Truven Health MarketScan claims data; assay type: in vivo, human; conditions: for CD incidence / Incidence Rate per 1,000 Years: Table 2, MarketScan 2009-2014; for CD incidence: cardiac dysrhythmia cases; for Incidence Rate per 1,000 Years: cardiac dysrhythmia; for Delta from Background Rate: in vivo
[4] = Table 1; cited from earlier work
hERG = hERG (Homo sapiens, UniProt Q12809)
Chain of hERG (Q12809 whole entry): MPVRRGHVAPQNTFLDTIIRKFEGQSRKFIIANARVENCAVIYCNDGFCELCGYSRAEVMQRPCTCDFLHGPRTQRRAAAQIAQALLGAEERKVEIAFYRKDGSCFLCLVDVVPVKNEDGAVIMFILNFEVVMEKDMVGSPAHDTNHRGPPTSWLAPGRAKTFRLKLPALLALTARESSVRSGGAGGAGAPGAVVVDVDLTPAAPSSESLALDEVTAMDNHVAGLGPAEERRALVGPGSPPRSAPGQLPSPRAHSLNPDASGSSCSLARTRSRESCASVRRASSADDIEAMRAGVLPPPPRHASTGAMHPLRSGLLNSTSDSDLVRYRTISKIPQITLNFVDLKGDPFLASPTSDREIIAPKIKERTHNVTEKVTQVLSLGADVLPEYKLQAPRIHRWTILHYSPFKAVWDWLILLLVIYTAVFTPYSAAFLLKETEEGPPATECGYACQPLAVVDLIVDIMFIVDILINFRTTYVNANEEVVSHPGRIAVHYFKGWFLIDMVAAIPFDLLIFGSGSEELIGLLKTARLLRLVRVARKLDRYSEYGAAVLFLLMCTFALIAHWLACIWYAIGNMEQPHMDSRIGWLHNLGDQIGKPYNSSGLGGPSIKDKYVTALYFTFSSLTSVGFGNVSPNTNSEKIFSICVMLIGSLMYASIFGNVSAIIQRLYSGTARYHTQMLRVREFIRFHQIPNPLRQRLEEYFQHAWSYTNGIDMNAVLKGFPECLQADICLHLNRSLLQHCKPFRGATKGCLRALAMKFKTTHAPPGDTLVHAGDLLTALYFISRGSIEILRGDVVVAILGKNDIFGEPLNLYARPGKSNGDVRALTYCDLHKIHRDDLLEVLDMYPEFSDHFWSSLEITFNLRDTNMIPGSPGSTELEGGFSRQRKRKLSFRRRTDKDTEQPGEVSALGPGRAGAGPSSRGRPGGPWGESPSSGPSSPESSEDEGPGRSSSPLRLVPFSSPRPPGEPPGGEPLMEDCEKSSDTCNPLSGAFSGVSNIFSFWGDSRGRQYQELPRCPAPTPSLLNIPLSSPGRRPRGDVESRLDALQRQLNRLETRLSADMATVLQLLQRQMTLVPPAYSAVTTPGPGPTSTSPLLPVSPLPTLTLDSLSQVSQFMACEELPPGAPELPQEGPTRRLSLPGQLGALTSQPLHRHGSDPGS

Compound | CredibleMeds [1] | EB05 [2] | CD incidence [3] | Incidence Rate per 1,000 Years [3] | Delta from Background Rate [3] | CredibleMeds Classification [1] | EB05 TdP [2] | EB05 VA [2] | EB05 VT [2] | CiPA Classification [4] | hERG IC50/Free Cmax Ratio (hERG) | rate of CD incidence, each patient subgroup ([3]; compared with the aggregated value, subgroups by age, gender, comorbidity index)
CCCCc1oc2ccccc2c1C(=O)c1cc(I)c(OCCN(CC)CC)c(I)c1 [AMIODARONE] | risk of TdP | 21.35 | 21,788 | 162.2 per 1,000 Years | 139.2 |  |  |  |  |  |  | 
COc1ccccc1OCC(O)CN1CCN(CC(=O)Nc2c(C)cccc2C)CC1 (centres unmarked) [RANOLAZINE] |  |  |  |  |  | conditional risk of TdP | 22.444 | 0.205 | 4.375 | very low |  | 
CN(CCOc1ccc(NS(C)(=O)=O)cc1)CCc1ccc(NS(C)(=O)=O)cc1 [DOFETILIDE] | risk of TdP | 20.98 | 2,749 | 157.58 per 1,000 Years | 134.58 |  | 20.983 | 6.235 |  |  |  | 
COc1cc2c(Nc3ccc(Br)cc3F)ncnc2cc1OCC1CCN(C)CC1 [VANDETANIB] |  |  |  |  |  | risk of TdP | 0.546 |  |  | high |  | 
CC(C)NCC(O)c1ccc(NS(C)(=O)=O)cc1 (racemic) [DL-SOTALOL] |  | 70.36 | 13,186 | 124.65 per 1,000 Years | 101.65 |  | 70.355 | 14.276 | 18.029 |  |  | 
CN1CCN(C2=Nc3cc(Cl)ccc3Nc3ccccc32)CC1 [CLOZAPINE] |  |  |  |  |  |  | 0.191 | 0.372 | 0.291 |  |  | 
COc1cc(N)c(Cl)cc1C(=O)NC1CCN(CCCOc2ccc(F)cc2)CC1OC (centres unmarked) [CISAPRIDE] |  |  |  |  |  | risk of TdP | 30.654 | 5.117 | 21.801 | intermediate |  | 
Cc1nccn1CC1CCc2c(c3ccccc3n2C)C1=O (centres unmarked) [ONDANSETRON] |  |  |  |  |  | risk of TdP | 15.333 | 1.281 | 6.395 | intermediate |  | 
CC(C)COCC(CN(Cc1ccccc1)c1ccccc1)N1CCCC1 (centres unmarked) [BEPRIDIL] |  |  |  |  |  | risk of TdP | 81.663 | 5.155 | 38.276 | high |  | 
CN(C)CCCN1c2ccccc2Sc2ccc(Cl)cc21 [CHLORPROMAZINE] |  |  |  |  |  | risk of TdP | 5.483 | 0.679 | 1.78 | intermediate |  | 
CCOC(=O)C1=C(C)NC(C)=C(C(=O)OC)C1c1cccc([N+](=O)[O-])c1 (centres unmarked) [NITRENDIPINE] |  |  |  |  |  |  | 0.618 |  | 0.228 | very low | 50345 | 
CCOC(=O)N1CCC(=C2c3ccc(Cl)cc3CCc3cccnc32)CC1 [LORATADINE] |  | 4.87 | 2,016 | 13.07 per 1,000 Years | −9.93 |  | 4.873 | 0.583 | 3.043 | very low |  | 
CC[C@H]1OC(=O)[C@H](C)[C@@H](O[C@H]2C[C@@](C)(OC)[C@@H](O)[C@H](C)O2)[C@H](C)[C@@H](O[C@@H]2O[C@H](C)C[C@H](N(C)C)[C@H]2O)[C@](C)(OC)C[C@@H](C)C(=O)[C@H](C)[C@@H](O)[C@]1(C)O [CLARITHROMYCIN] |  |  |  |  |  | risk of TdP | 7.69 | 1.898 | 3.016 | intermediate | 77.41 | 
O=c1[nH]c2ccccc2n1CCCN1CCC(n2c(=O)[nH]c3cc(Cl)ccc32)CC1 [DOMPERIDONE] |  |  |  |  |  |  | 18.85 | 1.455 | 1.468 |  |  | 
O=c1[nH]c2ccccc2n1C1CCN(CCCC(c2ccc(F)cc2)c2ccc(F)cc2)CC1 [PIMOZIDE] |  |  |  |  |  | risk of TdP | 17.093 | 0.25 | 2.332 | intermediate |  | 
Cc1nc2n(c(=O)c1CCN1CCC(c3noc4cc(F)ccc34)CC1)CCCC2 [RISPERIDONE] | possible risk of TdP | 1.26 | 4,066 | 18.47 per 1,000 Years | −4.53 | possible risk of TdP | 1.257 | 0.543 | 0.706 | intermediate |  | 
CCC(=O)C(CC(C)N(C)C)(c1ccccc1)c1ccccc1 (centres unmarked) [METHADONE] | risk of TdP | 36.41 | 1,662 | 19.73 per 1,000 Years | −3.27 |  | 36.408 | 1.87 | 3.998 |  |  | 

Compound | CredibleMeds [1] | EB05 [2] | CD incidence [3] | Incidence Rate per 1,000 Years [3] | Delta from Background Rate [3] | CredibleMeds Classification [1] | EB05 TdP [2] | EB05 VA [2] | EB05 VT [2] | CiPA Classification [4] | hERG IC50/Free Cmax Ratio (hERG) | rate of CD incidence, each patient subgroup ([3]; compared with the aggregated value, subgroups by age, gender, comorbidity index)
O=C(NCC1CCCCN1)c1cc(OCC(F)(F)F)ccc1OCC(F)(F)F (centres unmarked) [FLECAINIDE] |  |  |  |  |  |  |  | 4.123 | 20.567 |  |  | > 23.0
CCCNCC(O)COc1ccccc1C(=O)CCc1ccccc1 (centres unmarked) [PROPAFENONE] |  | 3.38 | 6,643 | 135.17 per 1,000 Years | 112.17 |  |  |  |  |  |  | 
Cc1cccc(C)c1OCC(C)N (centres unmarked) [MEXILETINE] |  | 2.65 | 1,250 | 280.45 per 1,000 Years | 257.45 |  |  |  |  | very low | 130.11 | 
CN(C)CC(c1ccc(O)cc1)C1(O)CCCCC1 (centres unmarked) [DESVENLAFAXINE] |  | 0.13 | 2,222 | 8.26 per 1,000 Years | −14.74 |  |  |  |  |  |  | 
CC/C(=C(\c1ccccc1)c1ccc(OCCN(C)C)cc1)c1ccccc1 [TAMOXIFEN] |  |  |  |  |  |  | 0.077 | 0.06 | 0.172 |  |  | 
CC(C)(C)c1ccc(C(O)CCCN2CCC(C(O)(c3ccccc3)c3ccccc3)CC2)cc1 (centres unmarked) [TERFENADINE] |  |  |  |  |  | risk of TdP | 24.417 | 3.085 | 9.397 | intermediate |  | 
COc1ccc(CCN(C)CCCC(C#N)(c2ccc(OC)c(OC)c2)C(C)C)cc1OC (centres unmarked) |  |  |  |  |  |  | 3.426 | 2.104 | 2.381 |  |  | 
COc1ccc(CCN2CCC(Nc3nc4ccccc4n3Cc3ccc(F)cc3)CC2)cc1 [ASTEMIZOLE] |  |  |  |  |  | risk of TdP | 18.549 | 1.965 | 15.499 | intermediate |  | 
C=C[C@H]1C[N@@]2CC[C@H]1C[C@@H]2[C@@H](O)c1ccnc2ccc(OC)cc12 [QUINIDINE] | risk of TdP | 35.67 | 421 | 87.75 per 1,000 Years | 64.75 |  | 35.667 | 2.768 | 12.296 |  |  | 
COC(=O)C1=C(C)NC(C)=C(C(=O)OC)C1c1ccccc1[N+](=O)[O-] [NIFEDIPINE] |  |  |  |  |  |  |  |  | 0.42 |  |  | 
Cc1nc2n(c(=O)c1CCN1CCC(c3noc4cc(F)ccc34)CC1)CCCC2O (centres unmarked) [PALIPERIDONE] | possible risk of TdP | 0.57 | 119 | 10.13 per 1,000 Years | −12.87 |  |  |  |  |  |  | 
COc1ccc([C@@H]2Sc3ccccc3N(CCN(C)C)C(=O)[C@@H]2OC(C)=O)cc1 [DILTIAZEM] |  |  |  |  |  |  | 2.62 | 0.925 | 1.443 |  |  | 
CN1CCN(CCCCN2C(=O)CN(/N=C/c3ccc(-c4ccc(Cl)cc4)o3)C2=O)CC1 [AZIMILIDE] |  |  |  |  |  |  | 94.351 |  | 1.381 | high | 11.50 | 
O=C(CCCN1CC=C(n2c(=O)[nH]c3ccccc32)CC1)c1ccc(F)cc1 [DROPERIDOL] |  |  |  |  |  | risk of TdP | 19.454 | 2.899 | 4.564 | intermediate |  | 
COCCc1ccc(OCC(O)CNC(C)C)cc1 (centres unmarked) [METOPROLOL] |  |  |  |  |  |  | 3.176 | 1.955 | 3.318 |  |  | 
CCCCCCCN(CC)CCCC(O)c1ccc(NS(C)(=O)=O)cc1 (centres unmarked) [IBUTILIDE] |  |  |  |  |  | risk of TdP | 218.45 | 2.901 | 101.022 | high |  | 
